Experimental data reported in patent US10087148B2, “Quinazolines as biogenic amine transport modulators” (THE UNITED STATES OF AMERICA AS REPRESENTED BY THE …, priority 2014, dated 2018).

Molecular target: dopamine transporter (DAT) (Rattus norvegicus (Rat), UniProt P23977)
Assay: [3H]dopamine (DA) uptake inhibition in rat brain (caudate) synaptosomes
Assay type: biochemical
Details: for DA Uptake Emax / EC50: rat caudate synaptosomes, 5 nM [3H]dopamine, mean ± SD; for One-Site Emax / Two-Site Emax-1 / Two-Site Emax-2: [3H]DA uptake; for One-Site Emax: one-component fit; for Two-Site Emax-1 / Two-Site Emax-2: two-component fit; for Two-Site Emax-1: component 1; for Two-Site Emax-2: component 2
Procedure: Uptake inhibition assay for the dopamine transporter was conducted in rat brain synaptosomes as described elsewhere with minor modifications (Rothman et al., Synapse 39, 32-41 (2001)). Freshly removed caudate was homogenized in 10% ice-cold sucrose with 12 strokes of a hand-held Potter-Elvehjem homogenizer followed by centrifugation at 1000×g for 10 min. The supernatants were saved on ice and used immediately. Transporter activity was assessed using 5 nM [^3H]dopamine. The assay buffer was Krebs-phosphate buffer containing 154.4 mM NaCl, 2.9 mM KCl, 1.1 mM CaCl2, 0.83 mM MgCl2, 5 mM glucose, 1 mg/mL ascorbic acid, and 50 μM pargyline. The selectivity of the uptake assay for DAT was optimized by including 100 nM citalopram and 100 nM desipramine as blockers of SERT and NET in the sucrose solution and assay buffer. Uptake inhibition assays were conducted at 25° C. and were initiated by adding 100 μl of tissue to 900 μL assay buffer containing test drug and [^3H]dopamine. Test drugs were diluted in assay buffer containing 1 mg/mL bovine serum albumin. Nonspecific uptake was measured by incubating in the presence of 10 μM indatraline. The reactions were stopped after 15 minutes by rapid vacuum filtration with a cell harvester (BRANDEL) over GF/B filters (Whatman) presoaked in wash buffer maintained at 25° C. (10 mM Tris-HCl, pH 7.4/150 mM NaCl). Filters were rinsed with 6 mL wash buffer and retained tritium was quantified by a MicroBeta liquid scintillation counter (PerkinElmer) after overnight extraction in 0.6 mL of liquid scintillation cocktail (Cytoscint, ICN). The data from three experiments were pooled and fit to a dose-response curve equation (using Kaleidagraph), to yield an Emax and EC50 value.
All of the test compounds were synthesized as described herein. Next, 8-point dose-response curves were generated for each compound (1-20,000 nM) in the [^3H]DA uptake assay. The data from three experiments were pooled and fit to a dose-response curve equation (using KaleidaGraph; Synergy Software, Reading, Pa.) to yield an Emax and IC50 value. […] Selected compounds were also tested for their ability to inhibit [^3H]WIN35428 binding to rat caudate DAT.

Chain of dopamine transporter (DAT) (P23977 whole entry): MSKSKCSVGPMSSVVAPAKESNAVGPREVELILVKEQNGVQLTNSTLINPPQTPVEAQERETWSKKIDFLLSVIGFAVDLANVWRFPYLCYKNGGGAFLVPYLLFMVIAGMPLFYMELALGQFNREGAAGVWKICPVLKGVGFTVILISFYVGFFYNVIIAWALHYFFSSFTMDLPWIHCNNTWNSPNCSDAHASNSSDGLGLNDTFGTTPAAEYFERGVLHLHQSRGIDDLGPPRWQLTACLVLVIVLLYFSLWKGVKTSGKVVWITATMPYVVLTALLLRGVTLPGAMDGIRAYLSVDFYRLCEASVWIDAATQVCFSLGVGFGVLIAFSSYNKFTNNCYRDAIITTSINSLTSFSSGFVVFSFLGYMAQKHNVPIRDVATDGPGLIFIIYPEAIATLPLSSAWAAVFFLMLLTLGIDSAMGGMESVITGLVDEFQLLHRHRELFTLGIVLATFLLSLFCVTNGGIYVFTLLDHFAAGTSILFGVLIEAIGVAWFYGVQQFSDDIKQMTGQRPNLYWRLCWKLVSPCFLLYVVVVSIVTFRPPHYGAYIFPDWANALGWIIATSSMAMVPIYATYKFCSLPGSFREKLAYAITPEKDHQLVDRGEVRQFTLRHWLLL

SMILES	DA Uptake Emax	EC50	Efficacy of [3H]DA (DAT) uptake inhibition, in words	One-Site Emax	Two-Site Emax-1	Two-Site Emax-2
CS(=O)(=O)Nc1ccc(-c2nc(NCC(c3ccccc3)C3CCCCC3)c3ccccc3n2)cc1 (stereo not shown) [Compound 6, N-(4-(4-((2-cyclohexyl-2-phenylethyl)amino)quinazolin-2-yl)phenyl)methanesulfonamide]	75 ± 2 % I	0.016 ± 0.002 µM				
CS(=O)(=O)Nc1ccc(-c2nc(NCC(c3ccccc3)c3ccccn3)c3ccccc3n2)cc1 (stereo not shown) [Compound 2, N-(4-(4-((2-phenyl-2-(pyridin-2-yl)ethyl)amino)quinazolin-2-yl)phenyl)methanesulfonamide]	90 ± 3 % I	0.05 ± 0.01 µM				
CN(C)c1ccc(-c2nc(NC(CCc3ccccc3)c3ccccc3)c3ccccc3n2)cc1 (stereo not shown) [Compound 43, 2-(4-(dimethylamino)phenyl)-N-(1,3-diphenylpropyl)quinazolin-4-amine]	70 ± 4 % I	0.075 ± 0.022 µM				
CN1CCN(C(CNc2nc(-c3ccc(N(C)C)cc3)nc3ccccc23)c2ccccc2)CC1 (stereo not shown) [Compound 22, 2-(4-(dimethylamino)phenyl)-N-(2-(4-methylpiperazin-1-yl)-2-phenylethyl)quinazolin-4-amine]	91 ± 4 % I	0.03 ± 0.008 µM				
CN(C)c1ccc(-c2nc(NCC(c3ccncc3)c3ccncc3)c3ccccc3n2)cc1 [Compound 34, N-(2,2-di(pyridin-4-yl)ethyl)-2-(4-(dimethylamino)phenyl)quinazolin-4-amine]	78 ± 3 % I	0.021 ± 0.005 µM				
CN(C)c1ccc(-c2nc(NCC(c3ccccc3)C3CCCCC3)c3ccccc3n2)cc1 (stereo not shown) [Compound 7, N-(2-cyclohexyl-2-phenylethyl)-2-(4-(dimethylamino)phenyl)quinazolin-4-amine]	71 ± 3 % I	0.046 ± 0.01 µM				
CN1CCN(C(CNc2nc(-c3ccc(NS(C)(=O)=O)cc3)nc3ccccc23)c2ccccc2)CC1 (stereo not shown) [Compound 23, N-(4-(4-((2-(4-methylpiperazin-1-yl)-2-phenylethyl)amino)quinazolin-2-yl)phenyl)methanesulfonamide]	77 ± 3 % I	0.062 ± 0.015 µM				
Cc1cc(N(C)C)ccc1-c1nc(NCC(c2ccccc2)c2ccc(CO)[nH]2)c2ccccc2n1 (stereo not shown) [Compound 28, (5-(2-((2-(4-(dimethylamino)-2-methylphenyl)quinazolin-4-yl)amino)-1-phenylethyl)-1H-pyrrol-2-yl)methanol]	84 ± 5 % I	0.018 ± 0.007 µM				
CN(C)c1ccc(-c2nc(NCC(c3ccccc3)N3CCOCC3)c3ccccc3n2)cc1 (stereo not shown) [Compound 18, 2-(4-(dimethylamino)phenyl)-N-(2-morpholino-2-phenylethyl)quinazolin-4-amine]	75 ± 5 % I	0.015 ± 0.007 µM	partially inhibits	75 ± 5 % I	57 ± 2 % I	42 ± 4 % I
CN(C)c1ccc(-c2nc(NCC(Cc3ccccc3)c3ccccc3)c3ccccc3n2)cc1 (stereo not shown) [Compound 26, 2-(4-(dimethylamino)phenyl)-N-(2,3-diphenylpropyl)quinazolin-4-amine]	78 ± 3 % I	0.039 ± 0.009 µM				
CS(=O)(=O)Nc1ccc(-c2nc(NCC(c3ccccc3)c3cccnc3)c3ccccc3n2)cc1 (stereo not shown) [Compound 25, N-(4-(4-((2-phenyl-2-(pyridin-3-yl)ethyl)amino)quinazolin-2-yl)phenyl)methanesulfonamide]	73 ± 2 % I	0.025 ± 0.004 µM				
CN(C)c1ccc(-c2nc(NCC(c3ccccn3)c3ccc[nH]3)c3ccccc3n2)cc1 (stereo not shown) [Compound 33, 2-(4-(dimethylamino)phenyl)-N-(2-(pyridin-2-yl)-2-(1H-pyrrol-2-yl)ethyl)quinazolin-4-amine]	89 ± 4 % I	0.065 ± 0.018 µM				
c1ccc(C(CNc2nc(-c3ccc4c(c3)CCN4)nc3ccccc23)c2ccccc2)cc1 [SRI-29986]			partial inhibitors	75 ± 3 % I	37 × 10^8 ± 2.7 × 10^8 % I	37 × 10^8 ± 0.7 × 10^8 % I
CN(C)c1ccc(-c2nc(NCC(c3ccccc3)c3ccncc3)c3ccccc3n2)cc1 (stereo not shown) [Compound 11, 2-(4-(Dimethylamino)phenyl)-N-(2-phenyl-2-(pyridin-4-yl)ethyl)quinazolin-4-amine]	77 ± 2 % I	0.013 ± 0.003 µM				
CS(=O)(=O)Nc1ccc(-c2nc(NCC(c3cccnc3)c3ccc[nH]3)c3ccccc3n2)cc1 (stereo not shown) [Compound 30, N-(4-(4-((2-(pyridin-3-yl)-2-(1H-pyrrol-2-yl)ethyl)amino)quinazolin-2-yl)phenyl)methanesulfonamide]	79 ± 3 % I	0.202 ± 0.042 µM				
CS(=O)(=O)Nc1ccc(-c2nc(NCC(c3ccccc3)c3ccc[nH]3)c3ccccc3n2)cc1 (stereo not shown) [Compound 15, N-(4-(4-((2-phenyl-2-(1H-pyrrol-2-yl)ethyl)amino)quinazolin-2-yl)phenyl)methanesulfonamide]	63 ± 2 % I	0.043 ± 0.008 µM				
CN(C)c1ccc(-c2nc(NCC(c3ccccc3)c3cccnc3)c3ccccc3n2)cc1 (stereo not shown) [Compound 24, 2-(4-(dimethylamino)phenyl)-N-(2-phenyl-2-(pyridin-3-yl)ethyl)quinazolin-4-amine]	79 ± 3 % I	0.024 ± 0.005 µM				
CN(C)c1ccc(-c2nc(NCC(C)(c3ccccc3)c3ccccc3)c3ccccc3n2)cc1 [Compound 38, 2-(4-(dimethylamino)phenyl)-N-(2,2-diphenylpropyl)quinazolin-4-amine]	68 ± 3 % I	0.015 ± 0.004 µM				
CN(C)c1ccc(-c2nc(NC(Cc3ccccc3)c3ccccc3)c3ccccc3n2)cc1 (stereo not shown) [Compound 40, 2-(4-(dimethylamino)phenyl)-N-(1,2-diphenylethyl)quinazolin-4-amine]	72 ± 2 % I	0.04 ± 0.008 µM				
CS(=O)(=O)Nc1ccc(-c2nc(NCC(c3ccncc3)c3ccncc3)c3ccccc3n2)cc1 [Compound 35, N-(4-(4-((2,2-di(pyridin-4-yl)ethyl)amino)quinazolin-2-yl)phenyl)methanesulfonamide]	70 ± 2 % I	0.047 ± 0.01 µM				
CCN(CC)C(=O)[C@]1(c2ccccc2)C[C@@H]1CNc1nc(-c2ccc(N(C)C)cc2)nc2ccccc12 [Compound 46, (1R,2S)-2-(((2-(4-(dimethylamino)phenyl)quinazolin-4-yl)amino)methyl)-N,N-diethyl-1-phenylcyclopropanecarboxamide]	93 ± 1 % I	0.243 ± 0.018 µM				
CS(=O)(=O)Nc1ccc(-c2nc(NCC(c3ccccc3)N3CCOCC3)c3ccccc3n2)cc1 (stereo not shown) [Compound 19, N-(4-(4-((2-morpholino-2-phenylethyl)amino)quinazolin-2-yl)phenyl)methanesulfonamide]	71 ± 4 % I	0.043 ± 0.013 µM				
CS(=O)(=O)Nc1ccc(-c2nc(NC(Cc3ccccc3)c3ccccc3)c3ccccc3n2)cc1 (stereo not shown) [Compound 41, N-(4-(4-((1,2-diphenylethyl)amino)quinazolin-2-yl)phenyl)methanesulfonamide]	69 ± 3 % I	0.05 ± 0.014 µM				
CN(C)c1ccc(-c2nc(NCC(c3ccccc3)N3CCCCC3)c3ccccc3n2)cc1 (stereo not shown) [Compound 16, 2-(4-(dimethylamino)phenyl)-N-(2-phenyl-2-(piperidin-1-yl)ethyl)quinazolin-4-amine]	88 ± 4 % I	0.034 ± 0.009 µM				
CC(CNc1nc(-c2ccc(NS(C)(=O)=O)cc2)nc2ccccc12)(c1ccccc1)c1ccccc1 [Compound 39, N-(4-(4-((2,2-diphenylpropyl)amino)quinazolin-2-yl)phenyl)methanesulfonamide]	67 ± 2 % I	0.016 ± 0.003 µM				
CS(=O)(=O)Nc1ccc(-c2nc(NCC(c3ccccc3)N3CCCC3)c3ccccc3n2)cc1 (stereo not shown) [Compound 20, N-(4-(4-((2-phenyl-2-(pyrrolidin-1-yl)ethyl)amino)quinazolin-2-yl)phenyl)methanesulfonamide]	79 ± 5 % I	0.16 ± 0.051 µM				
CN(C)c1ccc(-c2nc(NCC(Oc3ccccc3)c3ccccc3)c3ccccc3n2)cc1 (stereo not shown) [Compound 48, 2-(4-(dimethylamino)phenyl)-N-(2-phenoxy-2-phenylethyl)quinazolin-4-amine]	72 ± 3 % I	0.042 ± 0.01 µM				
CC(C)C(CNc1nc(-c2ccc(N(C)C)cc2)nc2ccccc12)c1ccccc1 (stereo not shown) [Compound 44, 2-(4-(dimethylamino)phenyl)-N-(3-methyl-2-phenylbutyl)quinazolin-4-amine]	84 ± 5 % I	0.03 ± 0.01 µM				
CN(C)c1ccc(-c2nc(NCC(O)(c3ccccc3)c3ccccc3)c3ccccc3n2)cc1 [Compound 5, 2-((2-(4-(dimethylamino)phenyl)quinazolin-4-yl)amino)-1,1-diphenylethanol]	74 ± 2 % I	0.0067 ± 0.0014 µM				
